The subject of assay [1] is severe arthritis caused by injuries in a horse. As to the kind of experiment: Treatment of osteoarthritis caused by injuries in a horse (Example 3, case report). In kind it is in vivo. The conditions noted are these: 30-year-old mare, previous treatments given together. An excerpt: Joint Response was tried as a last resort.
The subject of assay [2] is arthritis in Swiss albino mice. The conditions noted are these: cited from earlier work.
The subject of assay [3] is arthritis in laboratory rats exposed to Freund's adjuvant. The settings on record: cited from earlier work.

Structures are written as SMILES.

`CCCCC1C(=O)N(c2ccccc2)N(c2ccccc2)C1=O` [Butte]: the “alleviation of discomfort by previous treatments” value (“alleviation of discomfort” for short) in assay [1] is “not working nearly well enough”. For the molecule `CCCC/C=C\CCCCCCCC(=O)OCCCCCCCCCCCCCCCC` [CM, cetyl myristoleate], the protection from arthritis result in assay [2] and in assay [3] was “protected” each time. Turning to `N[C@H]1C(O)O[C@H](CO)[C@@H](O)[C@@H]1O` (some centres unmarked) [Glucosamine, glucosamine], the “alleviation of discomfort” value in assay [1] is “not working nearly well enough”. On to `CS(C)(=O)=O` [MSM, methylsulfonylmethane], for which the “alleviation of discomfort” value in assay [1] is “not working nearly well enough”.

The record behind these values is patent US8258184B1, “Use of vegetable butter-based cetyl myristoleate for treating osteoarthritis and other musculoskeletal disease conditions and injuries” (Botanoceuticals, Inc., priority 2002, dated 2012).
